In ChEMBL document CHEMBL1133772, “In vitro and in vivo evaluation of dihydropyrimidinone C-5 amides as potent and selective alpha(1A) receptor antagonists for the treatment of benign prostatic hyperplasia” (J Med Chem, 2000):

Assays:
[1] = Bioavailability in rat; type: ADME, organism-based; settings: in vivo
[2] = biological target: T1, Alpha-1D adrenergic receptor (Homo sapiens, UniProt P25100); test: Evaluated for the ability to displace [125I]- HEAT from human cloned Alpha-1D adrenergic receptor stably expressed in HEK cells.; type: cell-based, HEK293
T1 sequence (P25100 whole entry): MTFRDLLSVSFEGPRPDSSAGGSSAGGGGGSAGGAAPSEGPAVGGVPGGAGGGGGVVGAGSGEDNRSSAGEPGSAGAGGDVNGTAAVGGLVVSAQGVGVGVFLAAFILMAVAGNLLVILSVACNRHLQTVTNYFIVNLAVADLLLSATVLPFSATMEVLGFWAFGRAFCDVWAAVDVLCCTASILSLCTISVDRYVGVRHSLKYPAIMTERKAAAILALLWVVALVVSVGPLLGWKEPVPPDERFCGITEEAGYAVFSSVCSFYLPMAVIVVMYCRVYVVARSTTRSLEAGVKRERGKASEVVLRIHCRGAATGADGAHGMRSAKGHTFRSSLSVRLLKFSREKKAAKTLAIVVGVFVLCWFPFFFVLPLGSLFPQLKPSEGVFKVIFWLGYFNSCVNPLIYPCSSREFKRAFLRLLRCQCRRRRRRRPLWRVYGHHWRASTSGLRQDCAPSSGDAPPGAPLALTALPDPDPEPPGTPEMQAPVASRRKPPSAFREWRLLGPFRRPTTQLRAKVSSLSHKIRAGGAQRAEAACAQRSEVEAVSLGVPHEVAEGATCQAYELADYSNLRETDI

[3] = biological target: T2, Alpha-1A adrenergic receptor (Homo sapiens, UniProt P35348); test: Evaluated for the ability to displace [125I]- HEAT from human cloned Alpha-1A adrenergic receptor stably expressed in CHO cells.; type: cell-based
T2 sequence (P35348 whole entry): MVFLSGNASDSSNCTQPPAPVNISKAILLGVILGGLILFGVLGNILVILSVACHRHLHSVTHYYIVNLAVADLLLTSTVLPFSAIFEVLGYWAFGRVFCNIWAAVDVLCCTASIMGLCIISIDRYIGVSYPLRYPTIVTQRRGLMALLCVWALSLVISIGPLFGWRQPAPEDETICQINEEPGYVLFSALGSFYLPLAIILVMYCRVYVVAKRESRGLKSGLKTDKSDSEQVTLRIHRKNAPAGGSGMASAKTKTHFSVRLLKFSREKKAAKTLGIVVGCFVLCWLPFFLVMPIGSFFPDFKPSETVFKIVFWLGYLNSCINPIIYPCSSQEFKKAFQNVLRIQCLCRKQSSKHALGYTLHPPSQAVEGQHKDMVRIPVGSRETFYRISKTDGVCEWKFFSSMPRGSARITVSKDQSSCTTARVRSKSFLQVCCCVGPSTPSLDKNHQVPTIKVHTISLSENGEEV

[4] = biological target: T3, Alpha-1B adrenergic receptor (Homo sapiens, UniProt P35368); test: Evaluated for the ability to displace [125I]- HEAT from human cloned Alpha-1B adrenergic receptor stably expressed in LM cells.; type: cell-based
T3 sequence (P35368 whole entry): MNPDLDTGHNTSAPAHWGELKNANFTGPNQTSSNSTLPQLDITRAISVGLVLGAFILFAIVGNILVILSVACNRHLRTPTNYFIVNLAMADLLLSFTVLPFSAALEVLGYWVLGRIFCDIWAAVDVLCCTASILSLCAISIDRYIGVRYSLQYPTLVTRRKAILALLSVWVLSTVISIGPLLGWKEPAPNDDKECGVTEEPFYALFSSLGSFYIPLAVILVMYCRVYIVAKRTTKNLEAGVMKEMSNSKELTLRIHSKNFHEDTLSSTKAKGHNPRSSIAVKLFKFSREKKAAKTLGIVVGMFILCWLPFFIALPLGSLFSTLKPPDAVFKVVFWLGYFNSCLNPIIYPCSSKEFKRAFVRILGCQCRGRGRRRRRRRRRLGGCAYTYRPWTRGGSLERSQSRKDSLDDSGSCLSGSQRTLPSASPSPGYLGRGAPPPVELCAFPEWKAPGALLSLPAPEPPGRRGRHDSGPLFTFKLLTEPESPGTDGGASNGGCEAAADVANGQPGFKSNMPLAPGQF

[5] = species on record: Canis familiaris; test: The compound was evaluated for the inhibition of phenylephrine-induced contraction in dog.; type: functional, Canis lupus familiaris
[6] = species on record: Canis familiaris; test: Dose effecting a 20 mmHg change in diastolic blood pressure in dog.; type: functional, Canis lupus familiaris, Artery
[7] = species on record: Rattus norvegicus; test: Evaluated for the inhibition of A61603-induced prostate contraction in rat; type: functional, Prostate gland
[8] = species on record: Rattus norvegicus; test: Duration of action with repeated challenges of A61603 agonist in rat; type: functional
[9] = t1/2 in rat; type: ADME, organism-based; settings: in vivo
[10] = Bioavailability in dog (dose 0.5 mg/kg i.v. and 1 mg/kg p.o.); type: ADME, organism-based, Canis lupus familiaris; settings: in vivo, po
[11] = Plasma half-life from intravenous dose in dog.; type: ADME, organism-based, Canis lupus familiaris
[12] = species on record: Canis familiaris; test: Compound was evaluated for the inhibition of phenylephrine-induced contraction in dog.; type: functional, Canis lupus familiaris
[13] = species on record: Rattus norvegicus; test: Duration of action with repeated challenges of A61603 agonist, n=4, data from each time point was averaged (SEM<10%) in rat.; type: functional
[14] = species on record: Rattus norvegicus; test: Inhibition of A61603-induced contraction; n=4 and data for each concentration was averaged (SEM<10%) in rat.; type: functional
[15] = biological target: T1, Alpha-1D adrenergic receptor; test: Ability to displace [125I]- HEAT from human cloned Alpha-1D adrenergic receptor stably expressed in HEK cells.; type: cell-based, HEK293
[16] = biological target: T2, Alpha-1A adrenergic receptor; test: Ability to displace [125I]- HEAT from human cloned Alpha-1A adrenergic receptor stably expressed in CHO cells.; type: cell-based
[17] = species on record: Canis familiaris; test: Evaluated for the inhibition of phenylephrine-induced contraction (SEM<10%) in dog.; type: functional, Canis lupus familiaris
[18] = species on record: Canis familiaris; test: Dose effecting a 20 mmHg change in diastolic blood pressure (SEM<10%) in dog.; type: functional, Canis lupus familiaris, Artery
[19] = species on record: Rattus norvegicus; test: Evaluated for the inhibition of A61603-induced contraction; n=4 and data for each concentration was averaged (SEM<10%) in rat.; type: functional
[20] = The compound was evaluated for the bioavailability when dosed 0.5 mg/kg intravenously and 1 mg/kg perorally in dog.; type: ADME, organism-based, Canis lupus familiaris; settings: in vivo, po
[21] = The compound was evaluated for plasma half-life from intravenous dose in dog.; type: ADME, organism-based, Canis lupus familiaris

## CC1=C(C(=O)NCCCN2CCC(c3ccccc3C#N)CC2)[C@@H](c2ccc(F)c(F)c2)NC(=O)N1
[1]
  bioavailability: 0%
[2]
  Ki: 0.168 µM
[3]
  Ki: 0.00025 µM
[4]
  Ki: 0.158 µM
[5]
  IUP AD50: 6 µg/kg
[6]
  DBP-20: >300 µg/kg
[7]
  AD50: 3 µg/kg
[8]
  Duration: <0.5 h
[9]
  half-life: 2.7 h

## CC1=C(C(=O)NCCCN2CCC(c3ccc(F)cc3C#N)CC2)[C@@H](c2ccc(F)c(F)c2)NC(=O)N1C
[1]
  bioavailability: 15%
[10]
  bioavailability: 27%
[11]
  half-life: 2.13 h
[2]
  Ki: 0.34 µM
[3]
  Ki: 0.00012 µM
[4]
  Ki: 0.13 µM
[12]
  AD50: 10 µg/kg
[6]
  DBP-20: >300 µg/kg
[7]
  AD50: 7 µg/kg
[8]
  Duration: 2.5 h
[9]
  half-life: 2.2 h

## CCOc1ccccc1OCCN[C@H](C)Cc1ccc(OC)c(S(N)(=O)=O)c1 [TAMSULOSIN]
[13]
  Duration: 3.5 h
[14]
  AD50: 3 µg/kg

## COCC1=C(C(=O)NCCCN2CCC(c3ccccn3)CC2)[C@@H](c2ccc(F)c(F)c2)NC(=O)N1
[1]
  bioavailability: 0%
[10]
  bioavailability: 48%
[11]
  half-life: 5.58 h
[2]
  Ki: 0.495 µM
[3]
  Ki: 0.00045 µM
[4]
  Ki: 0.235 µM
[7]
  AD50: 12 µg/kg
[8]
  Duration: 0.25 h
[9]
  half-life: 7 h

## CC1=C(C(=O)NCCCN2CCC(c3ccc(F)cc3)CC2)[C@@H](c2ccc(F)c(F)c2)NC(=O)N1
[1]
  bioavailability: < 6%
[15]
  Ki: 0.24 µM
[4]
  Ki: 0.04 µM
[16]
  Ki: 0.00039 µM
[12]
  AD50: 7 µg/kg
[6]
  DBP-20: 143 µg/kg
[7]
  AD50: 1.8 µg/kg
[8]
  Duration: 0.5 h
[9]
  half-life: 1.7 h

## COc1cc2nc(N3CCN(C(=O)C4CCCO4)CC3)nc(N)c2cc1OC (stereo not drawn) [TERAZOSIN]
[17]
  IUP AD50: 97 µg/kg
[18]
  DBP-20: 74 µg/kg
[19]
  AD50: 52 µg/kg

## COCC1=C(C(=O)NCCCN2CCC(c3ccc(F)cc3)CC2)[C@@H](c2ccc(F)c(F)c2)NC(=O)N1
[20]
  bioavailability: 40%
[1]
  bioavailability: 26%
[21]
  half-life: 7.77 h
[2]
  Ki: 0.26 µM
[4]
  Ki: 0.041 µM
[16]
  Ki: 0.00024 µM
[12]
  AD50: 25 µg/kg
[6]
  DBP-20: >300 µg/kg
[7]
  AD50: 4.6 µg/kg
[8]
  Duration: 1 h
[9]
  half-life: 6.47 h

## CC1=C(C(=O)NCCCN2CCC(c3ccc(F)cc3C#N)CC2)[C@@H](c2ccc(F)c(F)c2)NC(=O)N1
[1]
  bioavailability: 0%
[2]
  Ki: 0.215 µM
[3]
  Ki: 0.00017 µM
[4]
  Ki: 0.087 µM
[12]
  AD50: 5 µg/kg
[6]
  DBP-20: >300 µg/kg
[7]
  AD50: 1.5 µg/kg
[8]
  Duration: 1.5 h
[9]
  half-life: 0.417 h
